Experimental data as given in PubChem BioAssay (NCI).
Where “and” joins values, the source holds several entries; their conditions need not be identical. Equal entries are not always repeated.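 48-hour exposure; five concentrations; linearly interpolated endpoints. GI50 is the concentration that inhibits growth by half. TGI denotes the concentration required for complete inhibition of growth.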

Experiments:
Assay in all cases: DTP human tumour cell line panel, 48 h
CAKI-1 renal = tested on: CAKI-1 renal
HL-60(TB) leukemia = tested on: HL-60(TB) leukemia
HS 578T breast = tested on: HS 578T breast
M14 melanoma = tested on: M14 melanoma
MDA-MB-231 breast = tested on: MDA-MB-231 breast
NCI-H226 lung = tested on: NCI-H226 lung
OVCAR-4 ovarian = tested on: OVCAR-4 ovarian
OVCAR-5 ovarian = tested on: OVCAR-5 ovarian
SN12C renal = tested on: SN12C renal
SR leukemia = tested on: SR leukemia

Compound | GI50 (CAKI-1 renal) | TGI (CAKI-1 renal) | GI50 (HL-60(TB) leukemia) | TGI (HL-60(TB) leukemia) | GI50 (HS 578T breast) | TGI (HS 578T breast) | GI50 (M14 melanoma) | TGI (M14 melanoma) | GI50 (MDA-MB-231 breast) | TGI (MDA-MB-231 breast) | GI50 (NCI-H226 lung) | TGI (NCI-H226 lung) | GI50 (OVCAR-4 ovarian) | TGI (OVCAR-4 ovarian) | GI50 (OVCAR-5 ovarian) | TGI (OVCAR-5 ovarian) | GI50 (SN12C renal) | TGI (SN12C renal) | GI50 (SR leukemia) | TGI (SR leukemia)
Oc1cc(O)c2c(=S)cc(-c3ccc(Cl)cc3)oc2c1 | 2.95 µM | 19.1 µM | 3.17 µM | 22.5 µM | 3.56 µM | 40.3 µM | 3.22 µM | 14.8 µM | 2 µM | 6.54 µM | 4.97 µM | 32.5 µM | 0.379 µM | > 31.8 µM | 11.1 µM | 32.5 µM | 2.78 µM | 11.1 µM | 3.52 µM | 29.6 µM
COC(=O)c1ccc([N+](=O)[O-])c(O)c1 |  | > 100 µM |  | > 100 µM |  | > 100 µM |  | > 100 µM |  | > 100 µM |  | > 100 µM |  | > 100 µM |  | > 100 µM |  | > 100 µM |  | > 100 µM
O=S1(=O)CS(=O)(=O)OCCCO1 |  | > 100 µM |  | > 100 µM |  | > 100 µM |  | > 100 µM |  | > 100 µM |  | > 100 µM |  | > 100 µM |  | > 100 µM |  | > 100 µM |  | > 100 µM
N#CN1CCC[C@H]1C(=O)N1CCc2c(-c3[nH]nc4ncccc34)cccc21 | < 0.01 µM | 1.46 µM | < 0.01 µM | < 0.01 µM | 0.239 µM | > 100 µM | < 0.01 µM | 0.354 µM | < 0.01 µM | 0.177 µM | 0.051 µM | 0.219 µM | < 0.01 µM | 13.3 µM | < 0.0156 µM | 17.4 µM | < 0.01 µM | 48.2 µM | < 0.01 µM | 20 µM
CCC1CC(=O)N(SCC(N)C(=O)O)C1=O (centres undefined) |  | > 100 µM |  | > 100 µM |  | > 100 µM |  | > 100 µM |  | > 100 µM |  | > 100 µM |  | > 100 µM |  | > 100 µM |  | > 100 µM |  | > 100 µM
OC(COc1cccc2ccccc12)CN1CCN(c2ccccc2)CC1 (centres undefined) | 12.6 µM | 27.2 µM | 21.1 µM | 52.4 µM | 15.8 µM | 47.3 µM | 15.5 µM | 29.7 µM | 15.8 µM | 31.8 µM | 14.7 µM | 29.7 µM | 14.1 µM | 27.6 µM | 16.4 µM | 30.8 µM | 16.4 µM | 31 µM | 16.1 µM | 41.3 µM
O=C1/C(=C/c2ccccc2)CCC/C1=C\c1ccccc1 | 7.03 µM and 17 µM | 13 µM and 46.4 µM and 44.7 µM | 10.4 µM and 26.1 µM | 36.5 µM and > 53 µM and 90 µM | 43.2 µM | 28.1 µM and > 100 µM | 2.96 µM | 12.9 µM and 19 µM and 7.88 µM | 18.5 µM | 11.6 µM and 68.1 µM | 7.83 µM and 12.5 µM | 13.8 µM and 35.1 µM and 33 µM | 6.18 µM | 11.8 µM and 32.4 µM | 6.75 µM and 22 µM | 12 µM and 31.7 µM and 43.3 µM | 7.33 µM | 12.6 µM and 32.8 µM and 34.9 µM | 10.8 µM and 3.16 µM | 36.5 µM and > 64.3 µM and 7.58 µM
O=C(c1cccs1)c1c(C(F)(F)F)n([O-])c2ccc(F)cc2[n+]1=O | 1.62 µM | 3.14 µM | 0.154 µM | 0.394 µM | 1.67 µM | 6.71 µM | 1.54 µM | 3 µM | 1.5 µM | 3.1 µM | 1.76 µM | 3.39 µM | 1.41 µM | 2.75 µM | 1.76 µM | 3.21 µM | 1.58 µM | 4.33 µM | 0.148 µM | 0.558 µM
Cc1cc(-c2nc(-c3ccc(OC(F)(F)F)cc3)no2)nn1Cc1ccnc(N2CCN(C3CC3)CC2)c1 | 6.3 µM | > 100 µM | 2.93 µM | > 69.2 µM | > 38.4 µM | > 72.6 µM | 2.69 µM | 20.4 µM | 12.6 µM | > 78.7 µM | 12.2 µM | > 100 µM | < 0.01 µM | > 100 µM | > 37.5 µM | > 100 µM | > 34.1 µM | > 100 µM |  | > 74 µM
N#Cc1c(NC(=O)CN2CCOCC2)sc2c1CCCC2 | > 25 µM | > 25 µM | > 25 µM | > 25 µM | > 25 µM | > 25 µM | > 25 µM | > 25 µM | > 25 µM | > 25 µM | > 25 µM | > 25 µM | > 25 µM | > 25 µM | > 25 µM | > 25 µM | > 25 µM | > 25 µM | > 25 µM | > 25 µM
